Results as given in patent US20190112578A1, “Derivation and Self-Renewal of Multipotent Cells and Uses Thereof” (IsletOne AB, priority 2016, published 2019).

What was measured:
Assay type in all cases: cell-based
[1] = tested on: embryonic rat cardiac mesenchymal stem cells and rat bone marrow; assay: Derivation of Isl1+ cells from rat mesenchymal stem cells on laminins in Wnt-medium (Isl1 immunostaining); details: on LN-521 in combination with hypoxia, two weeks in culture (5 passages)
Source text: In order to further improve feeder free culturing systems where the origin and expansion of multipotent cells could be followed, the inventors synthesized a plasmid construct comprising parts of the Isl1-promotor region linked to the fluorescent marker green fluorescent protein (GFP). The plasmid was introduced into the cells by means of electroporation. Mesenchymal cells (i) derived from rat embryonic hearts, (ii) obtained from rat bone marrow, (iii) obtained from the bone marrow of young healthy donors, (iv) obtained from human cord blood and other types of perinatal tissue, (v) isolated from human amniotic sources, (v) isolated from human adult cardiac tissue were labeled with the Isl1 gene construct concomitant to the addition of Wnt-containing medium (100 ng/ml Wnt-3a and […] BIO). […] In culture the cells grew to confluency and were passaged every other day. At each passage, cells were analysed immunohistochemically for the expression of Isl1.
For each experiment 10 pregnant sprague-dawley rats (gestational day, GD, 13 to 14) were used. The rats were euthanized in a CO2 chamber after which the whole embryos (approximately 10 embryos/rat) were removed through a low midline abdominal incision. From each embryo the heart was removed under microscope, minced into small pieces and rinsed repetitively with Hank's buffered salt solution (HBSS) (GibcoBRL, NY, USA). […]

multipotent cells (MSCs) = assay: Growth curves of multipotent cells (MSCs); details: LN-521 under hypoxia versus standard conditions (plastic under normoxia)
Source text: Cells can be grown under hypoxic conditions using a variety of methods. Normally, hypoxic conditions for cell culturing are defined as culturing of cells in an atmosphere containing 5% or less of oxygen.

Isl1 cells = assay: qRT-PCR of multipotency and differentiation markers in cells grown under various conditions; details: LN-521 under hypoxia versus LN-521 normoxia, plastic hypoxia

In the case of “LN-521: laminin heterotrimeric glycoprotein comprising an α5 chain, coated on cell culture plastic”, the “cells expressing Isl1” value [1] is reported as 80±15%, the “proliferation (growth curve)” value (multipotent cells (MSCs)) is reported as “significantly faster” and the “Isl1, KDR and Nkx_2_5 mRNA transcripts” value (Isl1 cells) is reported as “significantly higher”. For the same substance, the “Troponin T2 transcripts” value (Isl1 cells) was “lower”.
